Measured values reported in ChEMBL document CHEMBL1177735, “Amaryllidaceae alkaloids belonging to different structural subgroups display activity against apoptosis-resistant cancer cells” (J Nat Prod, 2010).
Counter-ions that a name gives are not always drawn.

Key:
A549 = assay: Cytotoxicity against human A549 cells after 72 hrs by MTT colorimetric assay; format: functional, cell-based; conditions: A549, 72 h
[1] = Cytotoxicity against human OE21 cells after 72 hrs by MTT colorimetric assay; format: functional, cell-based; conditions: OE21, 72 h
[2] = Cytotoxicity against human Hs683 cells after 72 hrs by MTT colorimetric assay; format: functional, cell-based; conditions: Hs 683, 72 h
[3] = Cytotoxicity against human U373 cells after 72 hrs by MTT colorimetric assay; format: functional, cell-based, U-373MG ATCC; conditions: U373 MG
SK-MEL = assay: Cytotoxicity against human SK-MEL cells after 72 hrs by MTT colorimetric assay; format: functional, cell-based
B16-F10 = assay: Cytotoxicity against mouse B16F10 cells after 72 hrs by MTT colorimetric assay; format: functional, cell-based; conditions: B16-F10, 72 h

| Structure (SMILES) | IC50 (A549) [µM] | IC50 [1] [µM] | IC50 [2] [µM] | IC50 [3] [µM] | IC50 (SK-MEL) [µM] | IC50 (B16-F10) [µM] |
| --- | --- | --- | --- | --- | --- | --- |
| COc1c2c(cc3c1OCO3)[C@@]13CCN(C2)[C@@H]1CC=C[C@H]3O [BUPHANAMINE] | > 10 | > 10 | > 10 | > 10 | > 10 | > 10 |
| O[C@H]1[C@H]2c3cc4c(cc3CN3CCC(=C[C@@H]1O)[C@H]23)OCO4 [LYCORINE] | 4.2 | 4.5 | 6.9 | 7.6 | 8.4 | – |
| COc1c2c(cc3c1OCO3)[C@]13C=C[C@H](OC)C[C@H]1N(C2)C[C@@H]3O [AMBELLINE] | > 10 | 86 | > 10 | > 10 | > 10 | > 10 |
| COc1cc2c(cc1O)[C@@H]1[C@H](O)[C@@H](O)C=C3CCN(C2)[C@H]31 [PSEUDOLYCORINE] | 7.4 | 7.9 | 7.9 | 7.8 | > 10 | – |
| [O-]c1cc2c3c(c1)c1cc4c(cc1c[n+]3CC2)OCO4 [UNGEREMINE] | > 10 | > 10 | > 10 | 83 | > 10 | > 10 |
| COC1C=C[C@@]23CCN(Cc4cc5c(cc42)OCO5)[C@@H]3C1 (stereo partly specified) | > 10 | 97 | > 10 | > 10 | > 10 | > 10 |
| CO[C@@H]1C=C[C@@]23c4cc5c(cc4CO[C@]2(O)CN(C)[C@H]3C1)OCO5 [TAZETTINE] | > 10 | 78 | > 10 | > 10 | > 10 | > 10 |
| CN1CC[C@@H]2C[C@H](O)[C@@H]3OC(=O)c4cc5c(cc4[C@H]3[C@@H]21)OCO5 [CLIVONINE HYDROCHLORIDE] | > 10 | > 10 | > 10 | > 10 | > 10 | > 10 |
| COc1cc2c(cc1OC)[C@@H]1[C@H](O)[C@@H](OC)C=C3CCN(C2)[C@H]31 [GALANTHINE] | > 10 | > 10 | > 10 | > 10 | > 10 | > 10 |
| COC1=C[C@@H]2CCN3Cc4cc5c(cc4[C@@H]([C@H]23)[C@@H]1O)OCO5 [AMARBELLISINE] | – | 6.7 | 8.2 | 7.2 | 8.3 | – |
| CO[C@@H]1C=C[C@@]23c4cc5c(cc4[C@@H](O)N(C[C@H]2O)[C@H]3C1)OCO5 [HAEMANTHIDINE] | 4 | 3.7 | 4.3 | 3.8 | 4.2 | 3.1 |
| O[C@@H]1CC=C2CCN3Cc4cc5c(cc4[C@H]1[C@@H]23)OCO5 [CARANINE] | > 10 | > 10 | > 10 | > 10 | > 10 | > 10 |
| CC(O)CC(=O)O[C@H]1C[C@H]2CCN(C)[C@H]2[C@@H]2c3cc4c(cc3C(=O)O[C@H]21)OCO4 (stereo partly specified) [NOBILISITINE B] | > 10 | > 10 | > 10 | > 10 | > 10 | > 10 |
| COc1cc2c(cc1O)CN1CCC3=CC[C@@H](O)[C@@H]2[C@@H]31 [NORPLUVINE] | > 10 | > 10 | > 10 | > 10 | > 10 | > 10 |
| CO[C@@H]1C=C[C@@]23c4cc5c(cc4CN(C[C@@H]2O)[C@H]3C1)OCO5 [(+)-HAEMANTHAMINE] | 4.5 | 6.8 | 7 | 7.7 | 8.5 | 6.8 |
